{"source": "patent US12285434B2", "about": "“Therapeutic, preventive, or improvement agent for inflammatory disease and allergic disease” (The University of Tokyo, priority 2018, dated 2025)", "system": "acute lung injury model mice", "assay": "Hydrochloric acid-induced acute lung injury (pneumonia, pulmonary edema)", "format": "in vivo, mouse", "conditions": "50 μg/kg intraperitoneally 5 minutes before and 3 hours after HCl", "description": "Fifty (50) μL of 0.1 N hydrochloric acid was nasally administered to 57BL/6 strain mice (male, 8 to 12 weeks old) to prepare acute lung injury model mice (hereinafter, sometimes referred to as “pneumonia group”). On the other hand, 50 μg/kg 5,6-DiHETE (manufactured by Cayman Chemical) was intraperitoneally administered 5 minutes before and 3 hours after the nasal administration of hydrochloric acid (hereinafter, sometimes referred to as “5,6-DiHETE-administered group”).\nThe lungs of the pneumonia group and the 5,6-DiHETE-administered group were collected 6 hours after the nasal administration of hydrochloric acid, fixed in 4% paraformaldehyde for 24 hours, embedded in paraffin, and cut into 2 μm-thick sections. Hematoxylin staining and eosin staining of these sections were performed according to a conventional method.\nThe wet/dry weight ratio was used as an index of pulmonary edema (Rachmilewitz D. et al., Gastroenterology, 97: 326-337(1989)). Specifically, 6 hours after the nasal administration of hydrochloric acid, the lungs were collected and the wet weights were measured. The lungs were then dried at 60° C. for 24 hours, and, thereafter, the dry weight was measured. In addition, the ventilatory capacity of the lungs was evaluated as an index of pneumonia using arterial blood oxygen saturations.", "data": [{"smiles": "CC/C=C\\C/C=C\\C/C=C\\C/C=C\\C[C@@H](O)[C@@H](O)CCCC(=O)O", "note": "(racemic) [5,6-DiHETE, (±) 5,6-dihydroxy-8Z,11Z,14Z,17Z-eicosatetraenoic acid]", "values": [{"measurement": "decrease in arterial blood oxygen saturation", "result": "suppressed"}, {"measurement": "epithelial damage and neutrophil tissue infiltration (HE-stained lung)", "setting": "6 hours", "result": "suppressed"}, {"measurement": "moisture content of the lung tissue (wet/dry weight ratio)", "setting": "6 hours", "result": "significantly reduced except one case"}, {"measurement": "reddishness of lung tissue (appearance)", "setting": "6 hours", "result": "improved"}]}]}
